Measurements from PubChem BioAssay AID248 (DTP/NCI, 2004).
“And” between values parts separate entries of the source, which are not always exact repeats. Equal values may be shown once. Toxic doses and inconclusive results are not listed. Rule as the data show it: active = T/C of 150% or more; inactive = T/C below 125%.

Tested on: L1210 leukemia ip in BDF1 mice, survival T/C
Experiment: NCI In Vivo Anticancer Drug Screen. Data for tumor model L1210 Leukemia (intraperitoneal) in B6D2F1 (BDF1) mice
Settings: endpoint: mean survival time, higher = longer survival
Summary of the method: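 Ratio derived from survival: compound-dosed mice over vehicle-dosed mice, all bearing a transplantable tumor.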

[1] = dose: 100.0 mg/kg/injection, schedule: Q01DX001 (ip), vehicle: Klucel (hydroxypropylcellulose) (HPC)
[2] = dose: 200.0 mg/kg/injection, schedule: Q01DX001 (ip), vehicle: Klucel (hydroxypropylcellulose) (HPC)
[3] = dose: 400.0 mg/kg/injection, schedule: Q01DX001 (ip), vehicle: Klucel (hydroxypropylcellulose) (HPC)
[4] = dose: 100.0 mg/kg/injection, schedule: Q04DX003 (ip), vehicle: Klucel (hydroxypropylcellulose) (HPC)
[5] = dose: 200.0 mg/kg/injection, schedule: Q04DX003 (ip), vehicle: Klucel (hydroxypropylcellulose) (HPC)
[6] = dose: 400.0 mg/kg/injection, schedule: Q04DX003 (ip), vehicle: Klucel (hydroxypropylcellulose) (HPC)
[7] = dose: 100.0 mg/kg/injection, schedule: Q01DX001 (ip), vehicle: saline
[8] = dose: 200.0 mg/kg/injection, schedule: Q01DX001 (ip), vehicle: saline
[9] = dose: 100.0 mg/kg/injection, schedule: Q01DX009 (ip), vehicle: saline
[10] = dose: 100.0 mg/kg/injection, schedule: Q04DX003 (ip), vehicle: saline
[11] = dose: 200.0 mg/kg/injection, schedule: Q01DX009 (ip), vehicle: saline
[12] = dose: 200.0 mg/kg/injection, schedule: Q04DX003 (ip), vehicle: saline
[13] = dose: 400.0 mg/kg/injection, schedule: Q04DX003 (ip), vehicle: saline
[14] = dose: 100.0 mg/kg/injection, schedule: Q01DX009 (ip), vehicle: Klucel (hydroxypropylcellulose) (HPC)
[15] = dose: 200.0 mg/kg/injection, schedule: Q01DX009 (ip), vehicle: Klucel (hydroxypropylcellulose) (HPC)
[16] = dose: 100.0 mg/kg/injection, schedule: Q01DX009 (ip), vehicle: gum acacia
[17] = dose: 100.0 mg/kg/injection, schedule: Q04DX003 (ip), vehicle: gum acacia
[18] = dose: 200.0 mg/kg/injection, schedule: Q04DX003 (ip), vehicle: gum acacia

Measured: T/C

Cc1ccc2c(c1)CC(C)([CH2][Hg][Cl])O2 (centres undefined)
inactive: dose: 3.0 mg/kg/injection, schedule: Q01DX009 (ip), vehicle: Klucel (hydroxypropylcellulose) (HPC) 91 % of control | dose: 3.0 mg/kg/injection, schedule: Q04DX003 (ip), vehicle: Klucel (hydroxypropylcellulose) (HPC) 90 % of control | dose: 6.0 mg/kg/injection, schedule: Q01DX009 (ip), vehicle: Klucel (hydroxypropylcellulose) (HPC) 91 % of control | dose: 6.0 mg/kg/injection, schedule: Q04DX003 (ip), vehicle: Klucel (hydroxypropylcellulose) (HPC) 87 % of control | dose: 12.0 mg/kg/injection, schedule: Q04DX003 (ip), vehicle: Klucel (hydroxypropylcellulose) (HPC) 92 % of control

CCOc1ccc(-n2c(O)c(N=Nc3ccccc3C)c(=O)n(-c3ccc(OC)cc3)c2=S)cc1
inactive: [1] 94 % of control | [2] 95 % of control | [3] 89 % of control

COc1cc2c(c3oc(=O)ccc13)C=CC(C)(C)O2
inactive: [4] 102 % of control | [5] 107 % of control | [6] 94 % of control

Oc1ccccc1CNCc1ccccc1O
inactive: dose: 75.0 mg/kg/injection, schedule: Q01DX001 (ip), vehicle: saline 96 % of control | dose: 150.0 mg/kg/injection, schedule: Q01DX001 (ip), vehicle: saline 96 % of control

CCSc1ncnc2nc(C)[nH]c12
inactive: [7] 100 % of control | [8] 101 % of control

CCOCCC(O)CC (centres undefined)
inactive: [9] 98 % of control | [10] 90 % of control | [11] 98 % of control | [12] 88 % of control | dose: 400.0 mg/kg/injection, schedule: Q01DX009 (ip), vehicle: saline 98 % of control | [13] 89 % of control

O=C(CCCC(=O)N/N=C/c1ccc(O)c(O)c1)N/N=C\c1ccc(O)c(O)c1
inactive: dose: 50.0 mg/kg/injection, schedule: Q01DX001 (ip), vehicle: other 104 % of control | dose: 100.0 mg/kg/injection, schedule: Q01DX001 (ip), vehicle: other 93 % of control | dose: 200.0 mg/kg/injection, schedule: Q01DX001 (ip), vehicle: other 98 % of control | dose: 400.0 mg/kg/injection, schedule: Q01DX001 (ip), vehicle: other 91 % of control

Clc1ccc(/C=C2\c3cc(Cl)ccc3-c3c(Cl)cc(Cl)cc32)cc1
inactive: [1] 91 % of control | [14] 91 % of control | [4] 86 % of control | [2] 93 % of control | [15] 90 % of control | [5] 91 % of control | [3] 95 % of control | dose: 400.0 mg/kg/injection, schedule: Q01DX009 (ip), vehicle: Klucel (hydroxypropylcellulose) (HPC) 86 % of control | [6] 93 % of control

O=Cc1cc(Cl)ccc1O
inactive: [14] 108 % of control | [15] 102 % of control

Cn1c(=O)c2[nH]c(C3CC3)nc2n(C)c1=O
inactive: dose: 50.0 mg/kg/injection, schedule: Q01DX001 (ip), vehicle: saline 113 % of control | [7] 101 % of control | [8] 98 % of control

Cc1cn[nH]c1-c1ccccc1
inactive: dose: 50.0 mg/kg/injection, schedule: Q04DX003 (ip), vehicle: Klucel (hydroxypropylcellulose) (HPC) 107 % of control | [4] 104 % of control | [5] 94 % of control

NC(=S)N/N=C(/Cc1ccccc1)CC(O)(C(F)(F)F)C(F)(F)F
inactive: dose: 50.0 mg/kg/injection, schedule: Q01DX009 (ip), vehicle: gum acacia 92 % of control | [16] 91 % of control | [17] 94 % of control | [18] 105 % of control

O=C(CSc1ccccc1)NCc1cnccn1
inactive: [9] 103 % of control | [10] 92 % of control | [11] 102 % of control | [12] 105 % of control | [13] 105 % of control

O=C(O)C1CC(c2ccccc2)OC1=O (centres undefined)
inactive: [16] 101 % of control | [17] 98 % of control | dose: 200.0 mg/kg/injection, schedule: Q01DX009 (ip), vehicle: gum acacia 89 % of control | [18] 93 % of control | dose: 400.0 mg/kg/injection, schedule: Q01DX009 (ip), vehicle: gum acacia 106 % of control | dose: 400.0 mg/kg/injection, schedule: Q04DX003 (ip), vehicle: gum acacia 91 % of control

Cc1nc2ccccc2n1C
inactive: dose: 100.0 mg/kg/injection, schedule: Q01DX009 (ip), vehicle: saline with Tween-80 107 % of control

C=C1CC(c2ccc(S(=O)(=O)N3CCOCC3)cc2)OC1=O (centres undefined)
inactive: dose: 1.56 mg/kg/injection, schedule: Q01DX009 (ip), vehicle: Klucel (hydroxypropylcellulose) (HPC) 94 % of control | dose: 3.12 mg/kg/injection, schedule: Q01DX009 (ip), vehicle: Klucel (hydroxypropylcellulose) (HPC) 106 % of control | dose: 6.25 mg/kg/injection, schedule: Q01DX009 (ip), vehicle: Klucel (hydroxypropylcellulose) (HPC) 106 % of control | dose: 12.5 mg/kg/injection, schedule: Q01DX009 (ip), vehicle: Klucel (hydroxypropylcellulose) (HPC) 105 % of control | dose: 25.0 mg/kg/injection, schedule: Q01DX009 (ip), vehicle: Klucel (hydroxypropylcellulose) (HPC) 93 % of control | dose: 100.0 mg/kg/injection, schedule: Q04DX002 (ip), vehicle: Klucel (hydroxypropylcellulose) (HPC) 95 % of control | dose: 200.0 mg/kg/injection, schedule: Q04DX002 (ip), vehicle: Klucel (hydroxypropylcellulose) (HPC) 113 % of control

COC(C)c1nnnn1C (centres undefined)
inactive: dose: 100.0 mg/kg/injection, schedule: Q04DX003 (ip), vehicle: saline with Tween-80 97 % of control | dose: 200.0 mg/kg/injection, schedule: Q04DX003 (ip), vehicle: saline with Tween-80 98 % of control | dose: 400.0 mg/kg/injection, schedule: Q04DX003 (ip), vehicle: saline with Tween-80 101 % of control

CC1CN1C(=O)Nc1ccc(Cl)cc1 (centres undefined)
inactive: dose: 25.0 mg/kg/injection, schedule: Q04DX002 (ip), vehicle: other 116 % of control | dose: 50.0 mg/kg/injection, schedule: Q04DX002 (ip), vehicle: other 100 % of control | dose: 100.0 mg/kg/injection, schedule: Q04DX002 (ip), vehicle: other 97 % of control and 91 % of control

Cc1ccc(S(=O)(=O)NNc2c3ccccc3nc3ccc(Cl)cc23)cc1
inactive: dose: 100.0 mg/kg/injection, schedule: Q04DX002 (ip), vehicle: saline with Tween-80 101 % of control | dose: 200.0 mg/kg/injection, schedule: Q04DX002 (ip), vehicle: saline with Tween-80 97 % of control | dose: 400.0 mg/kg/injection, schedule: Q04DX002 (ip), vehicle: saline with Tween-80 97 % of control
